From patent EP4631940A1, “COMPOUND TARGETING PAN-KRAS PROTEIN DEGRADATION AGENT AND USE THEREOF” (Betta Pharmaceuticals Co., Ltd., priority 2022, dated 2024)
Read-outs that look alike come from different tables or passages of the source.

How the values were obtained:
KRAS G12D [1] = target: T1, KRAS G12D (Homo sapiens, UniProt P01116, G12D)
SW620 = assay: Cell proliferation experiment (CellTiter-Glo); format: cell-based; conditions: read-out: IC50(nM) SW620
[2] = PK study in ICR mice (whole blood); format: in vivo; conditions: Female ICR mice, IV 1 mg/kg
Protocol: Example 8 PK Study of Compound in ICR Mice (whole blood)
(§1) The compound was mixed with the vehicle (10% DMSO / 5% Solutol HS 15 / 85% saline), vortexed, and sonicated to prepare a clear solution at 0.2 mg/mL. Female ICR mice aged 6 to 7 weeks (non-fasted) were intravenously administered the compound. Whole blood was collected at specified time points. Drug concentration was analyzed by LC-MS/MS, and pharmacokinetic parameters were calculated using Phoenix WinNonlin software (Pharsight Corporation, USA). Table 11 Mouse PK Data for Intravenous Compound Monotherapy

AGS = assay: Cell proliferation experiment (CellTiter-Glo); format: cell-based; conditions: read-out: IC50(nM) AGS
[3] = Metabolic stability in liver microsomes (NADPH); conditions: for The in vitro intrinsic clearance in liver microsomes (CLint, in vitro, µL/min/mg protein) Human: 0.5 mg/mL liver microsomes, NADPH, 37°C
[4] = Metabolic stability in liver microsomes (NADPH); conditions: for The in vitro intrinsic clearance in liver microsomes (CLint, in vitro, µL/min/mg protein) Mouse: 0.5 mg/mL liver microsomes, NADPH, 37°C
[5] = Metabolic stability in liver microsomes (NADPH); conditions: for The in vitro intrinsic clearance in liver microsomes (CLint, in vitro, µL/min/mg protein) Dog: 0.5 mg/mL liver microsomes, NADPH, 37°C
[6] = Metabolic stability in liver microsomes (NADPH); conditions: for The in vitro intrinsic clearance in liver microsomes (CLint, in vitro, µL/min/mg protein) Rat: 0.5 mg/mL liver microsomes, NADPH, 37°C
in vitro [7] = conditions: rat, microsomes
H1975 = assay: Cell proliferation experiment (CellTiter-Glo); format: cell-based; conditions: Homo sapiens, NCI-H1975; H1975, KRAS WT; 96 h incubation
in vitro [8] = conditions: mouse, microsomes
HCT116 = assay: Cell proliferation experiment (CellTiter-Glo); format: cell-based; conditions: Homo sapiens, HCT-116; HCT116, KRAS mutation type G13D; 96 h incubation
KRAS G12D [9] = target: T1, KRAS G12D; assay: cell-based; conditions: AGS
in vitro [10] = conditions: dog, microsomes
in vitro [11] = conditions: human, microsomes
PK59 = assay: Cell proliferation experiment (CellTiter-Glo); format: cell-based; conditions: PK-59; PK59, KRAS mutation type G12D; 96 h incubation
[12] = PK study in Beagle dogs (plasma); format: in vivo; conditions: IV 1 mg/kg
Protocol: Example 10 PK Study of Compound 135 in Beagle Dogs
as §1, with “Compound 135” for “The compound”, “0.5” for “0.2”, “Beagle dogs weighing approximately 10 kg (equal number of males and females, non-fasted)” for “Female ICR mice aged 6 to 7 weeks (non-fasted)”, “Plasma” for “Whole blood”, “13 Beagle Dog” for “11 Mouse”

PK-59 cells = assay: Anti-tumor effects in a human pancreatic cancer xenograft model carrying KRAS^G12D mutation; format: in vivo, BALB/c Nude Crlj mice; conditions: PK-59 xenograft; for TGI After 4 Weeks of Administration (%): tail vein
[13] = PK study in ICR mice (plasma); format: in vivo; conditions: Female ICR mice, IV 1 mg/kg
Protocol: Example 9 PK Study of Compound in ICR Mice (plasma)
as §1, with “Plasma” for “Whole blood”, “12” for “11”

H358 = assay: Cell proliferation experiment (CellTiter-Glo); format: cell-based; conditions: Homo sapiens, NCI-H358; H358, KRAS mutation type G12C; 96 h incubation

| Compound | DC50 (KRAS G12D [1]) | Dmax (%) (KRAS G12D [1]) | IC50 (SW620) | IC50 (AGS) | The in vitro intrinsic clearance in liver microsomes (CLint, in vitro, µL/min/mg protein) Human [3] | The in vitro intrinsic clearance in liver microsomes (CLint, in vitro, µL/min/mg protein) Mouse [4] | The in vitro intrinsic clearance in liver microsomes (CLint, in vitro, µL/min/mg protein) Dog [5] | The in vitro intrinsic clearance in liver microsomes (CLint, in vitro, µL/min/mg protein) Rat [6] | microsomal CLint (in vitro [7]) | IC50 (H1975) | microsomal CLint (in vitro [8]) | IC50 (SW620; Homo sapiens, SW-620, 96 h) | IC50 (HCT116) | IC50 (AGS; Homo sapiens, AGS, 96 h) | Dmax (KRAS G12D [9]) | microsomal CLint (in vitro [10]) | microsomal CLint (in vitro [11]) | IC50 (PK59) | also measured |
| --- | --- | --- | --- | --- | --- | --- | --- | --- | --- | --- | --- | --- | --- | --- | --- | --- | --- | --- | --- |
| CCc1c(F)ccc2cc(O)cc(-c3ncc4c(N5CCC[C@@](C)(O)C5)nc(OCC5(CN6CCC7(CC6)CC(c6cn([C@H](C(=O)N8C[C@H](O)C[C@H]8C(=O)N[C@@H](C)c8ccc(-c9scnc9C)cc8)C(C)C)nn6)C7)CC5)nc4c3F)c12 [Compound 73, (2S,4R)-1-((S)-2-(4-(7-((1-((7-(8-ethyl-7-fluoro-3-hydroxynaphthalen-1-yl)-8-fluoro-4-(((R)-3-hydroxy-3-methylpiperidin-1-yl)pyrido[4,3-d]pyrimidin-2-yl)oxy)methyl)cyclopropyl)methyl)-7-azaspiro[3.5]nonan-2-yl)-1H-1,2,3-triazol-1-yl)-3-methylbutanoyl)-4-hydroxy-N-((S)-1-(4-(4-methylthiazol-5-yl)phenyl)ethyl)pyrrolidine-2-carboxamide] | 17 nM | 95% | 81 nM | 22 nM | 13.8 µL/min/mg protein | 7.1 µL/min/mg protein | 18.9 µL/min/mg protein | 9.8 µL/min/mg protein |  |  |  |  |  |  |  |  |  |  | AUClast [2]: 2051 ng·h/mL; C0 [2]: 3008 ng/mL; t1/2 [2]: 5.07 h; Cl_obs ([2]; 1 mg/kg): 7.97 mL/min/kg; Vss_obs ([2]; 1 mg/kg): 1.91 L/kg |
| CCc1c(F)ccc2cc(O)cc(-c3ncc4c(N5CCC[C@@](C)(O)C5)nc(OCC5(CN6CCC7(CC6)CN(c6ccc(-c8cn([C@H](C(=O)N9C[C@H](O)C[C@H]9C(=O)N[C@@H](C)c9ccc(-c%10scnc%10C)cc9)C(C)C)nn8)cn6)C7)CC5)nc4c3F)c12 [Compound 118] | 11 nM |  |  |  |  |  |  |  | 3.4 µL/min/mg | > 10000 nM | 11.4 µL/min/mg | 26 nM | 37 nM | 13 nM | 95% | 17.2 µL/min/mg | 21.3 µL/min/mg | 12.2 nM |  |
| CCc1c(F)ccc2cc(O)cc(-c3ncc4c(N5CCC[C@@](C)(O)C5)nc(OCC5(CN6CCC(Oc7ccc(-c8cn([C@H](C(=O)N9C[C@H](O)C[C@H]9C(=O)N[C@@H](C)c9ccc(-c%10scnc%10C)cc9)C(C)C)nn8)cn7)CC6)CC5)nc4c3F)c12 [Compound 135] | 14 nM |  |  |  |  |  |  |  | 1.5 µL/min/mg | > 10000 nM | 13.2 µL/min/mg | 39 nM | 33 nM | 5.2 nM | 95% | 26.9 µL/min/mg | 11.3 µL/min/mg | 14.7 nM | Cl_obs [12]: 5.74 mL/min/kg; Vss_obs [12]: 2.23 L/kg; AUC(0-t) ([12]; dog): 2780 ng·h/mL; C0 ([12]; dog): 11000 ng/mL; half-life ([12]; dog): 21.4 h; TGI After 4 Weeks of Administration (%) (PK-59 cells; 1 mg/kg, QW): 70%; TGI After 4 Weeks of Administration (%) (PK-59 cells; 3 mg/kg, QW): 92%; TGI After 4 Weeks of Administration (%) (PK-59 cells; 10 mg/kg, QW): 106%; TGI After 4 Weeks of Administration (%) (PK-59 cells; 20 mg/kg, Q2W): 101%; TGI at 20 mg/kg once every two weeks versus 10 mg/kg once weekly (PK-59 cells; 4 weeks of administration): comparable TGI; Cl_obs [13]: 5.80 mL/min/kg; Vss_obs [13]: 1.61 L/kg; AUC(0-t) ([13]; mouse): 2750 ng·h/mL; C0 ([13]; mouse): 5840 ng/mL; half-life ([13]; mouse): 6.92 h; IC50 (H358): 7.3 nM |
| C=C1CN2[C@H](COC(=O)N3CCC(Cc4cn([C@H](C(=O)N5C[C@H](O)C[C@H]5C(=O)N[C@@H](C)c5ccc(-c6scnc6C)cc5)C(C)C)nn4)CC3)CC[C@@]2(COc2nc(N3CCC[C@@](C)(O)C3)c3cnc(-c4cc(O)cc5ccc(F)c(CC)c45)c(F)c3n2)C1 [Compound 141, ((3S,7aS)-7a-(((7-(8-ethyl-7-fluoro-3-hydroxynaphthalen-1-yl)-8-fluoro-4-((R)-3-hydroxy-3-methylpiperidin-1-yl)pyrido[4,3-d]pyrimidin-2-yl)oxy)methyl)-6-methylenehexahydro-1H-pyrrolizin-3-yl)methyl 4-((1-((S)-1-((2S,4R)-4-hydroxy-2-(((S)-1-(4-(4-methylthiazol-5-yl)phenyl)ethyl)carbamoyl)pyrrolidin-1-yl)-3-methyl-1-oxobutan-2-yl)-1H-1,2,3-triazol-4-yl)methyl)piperidine-1-carboxylate] |  |  |  |  |  |  |  |  |  |  |  | 250 nM |  | 31 nM |  |  |  |  | microsomal CLint at 1 µM ([3]; human, liver microsomes): 21.2 µL/min/mg; microsomal CLint at 1 µM ([4]; mouse, liver microsomes): 12.1 µL/min/mg; microsomal CLint at 1 µM ([5]; dog, liver microsomes): 12.9 µL/min/mg; microsomal CLint at 1 µM ([6]; rat, liver microsomes): 3.9 µL/min/mg |
| (2S,4R)-1-((S)-2-(5-(((3S,7aS)-7a-(((7-(8-ethyl-7-fluoro-3-hydroxynaphthalen-1-yl)-8-fluoro-4-( (R)-3-hydroxy-3-methylpiperidin-1-yl)pyrido[4,3-d]pyrimidin-2-yl)oxy)methyl)-6-methylenehex ahydro-1H-pyrrolidin-3-yl)methoxy)methyl)-1H-1,2,3-triazol-1-yl)-3-methylbutanoyl)-4-hydrox y-N-(((S)-1-(4-(4-methylthiazol-5-yl)phenyl)ethyl)pyrrolidine-2-carboxamide [Compound 120] | 11 nM | 95% | 102 nM | 12 nM | 128 µL/min/mg protein | 48.5 µL/min/mg protein | 113 µL/min/mg protein | 9.3 µL/min/mg protein |  |  |  |  |  |  |  |  |  |  |  |
| ((7-(8-ethyl-7-fluoro-3-hydroxynaphthalen-1-yl)-8-fluoro-4-(R)-3-hydroxy-3-methylpiperidin-1-yl)pyrido[4,3-d]pyrimidin-2-yl)oxy)methyl)-6-methylenehexahydro-1H-pyrrolizin-3-yl)methyl 2-(1-(S)-1-(2S,4R)-4-hydroxy-2-(S)-1-(4-(4-methylthiazol-5-yl)phenyl)ethylcarbamoyl)pyrrolidi n-1-yl)-3-methyl-1-oxobutan-2-yl)-1H-1,2,3-triazol-4-yl)-7-azaspiro[3.5]nonane-7-carboxylate [Compound 127] |  |  | 223 nM | 47 nM | 52.8 µL/min/mg protein | 42.4 µL/min/mg protein | 31.5 µL/min/mg protein | 15.6 µL/min/mg protein |  |  |  |  |  |  |  |  |  |  |  |
